One data set has as its system Huh7 cells. The data set is described as follows: cell penetration by fluorescence microscopy, Huh7. The data set is classed as cell-based, human. The method, then: (§1) The effect of the sub-micromolar HDM2 binding bis-peptide 1 in cell-culture was thereafter evaluated. The cell-penetrating capability of two of the functionalized bis-peptides was first examined. […] Bis-peptide 1 was then incubated with both Huh7 cells and HepG2 (human liver hepatoblastoma cells) and imaged.

The test system of a further data set is HepG2 cells. The data set is classed as cell-based, human. The method, then:
as §1

Another data set relates to p53. Conditions: stated as known behaviour of HDM2 ligands; cited from earlier work.

Turning to `CC(C)CN1C(=O)[C@@H]2C[C@@]3(CN2C(=O)[C@@]12C[C@H]1C(=O)N(Cc4ccc(Cl)c(Cl)c4)[C@]4(C[C@@H]5C(=O)N[C@@H](CCc6ccccc6)C(=O)N5C4)C(=O)N1C2)NC(=O)[C@@H](CCCCNC(=S)Nc1ccc2c(c1)C(=O)OC21c2ccc(O)cc2Oc2cc(O)ccc21)NC3=O` [Entry 1], the “cellular uptake and distribution” value in the data set on Huh7 cells was “distribution of entry 1 throughout the cytoplasm and nucleus”; in the data set with HepG2 cells, “distribution of entry 1 throughout the cytoplasm and nucleus”. For `CC(C)CN1C(=O)[C@@H]2C[C@@]3(CN2C(=O)[C@@]12C[C@H]1C(=O)N(Cc4ccc5ccccc5c4)[C@]4(C[C@H]5C(=O)N[C@@H](Cc6ccccc6)C(=O)N5C4)C(=O)N1C2)NC(=O)[C@H](CCCCNC(=S)Nc1ccc2c(c1)C(=O)OC21c2ccc(O)cc2Oc2cc(O)ccc21)NC3=O` [Entry 3], the cellular uptake result in the data set with Huh7 cells (Huh7, 2 μM, 24 hours, fluorescence and confocal microscopy) was “Significant uptake”. In the case of `O=C1OC2(c3ccc(O)cc3Oc3cc(O)ccc32)c2ccccc21` [fluorescein, reference compound], the “cellular uptake and distribution” value in the data set with Huh7 cells and in the data set with HepG2 cells was “no visible uptake of fluorescence” each time.

Regarding `COc1ccc(C2=N[C@@H](c3ccc(Cl)cc3)[C@@H](c3ccc(Cl)cc3)N2C(=O)N2CCNC(=O)C2)c(OC(C)C)c1` [nutlin-3a], in the data set on p53, the “effect on p53 levels” value is reported as “increase in p53 levels”.

The values are drawn from patent US8895739B2, “Acylation of hindered amines and functionalized bis-peptides obtained thereby” (Temple University of the Commonwealth System of Higher …, priority 2008, dated 2014).
